Columns and labels:
[1] = system: MCF-7 breast carcinoma cells; test: RNA-seq gene set enrichment analysis; conditions: 5 μM, 24 hrs
P493-6 cells = test: cell cycle distribution by flow cytometry, P493-6; assay type: cell-based; conditions: 5 μM, 48 hours
Procedure: FIG. 4: MYCMI-7 induces apoptosis in malignant cells and growth arrest in normal cells. A) Cell cycle distribution analysis by flow cytometry of MYC-regulated P493-6 cells and normal rat embryo fibroblasts (REFs). Left panel, P493-6 synchronized in G0 by 24 hours treatment of […] doxycycline. Doxycycline was removed and the cells were harvested 48 hours after the addition of fresh medium containing DMSO or 5 μM MYCMI-7. Right panel, flow cytometry analysis of normal REFs treated with DMSO or 5 μM MYCMI-7. B) Apoptosis assay using the Cell Death Detection ELISA^plus kit. Left panel, immortalized Rat1 fibroblasts with different MYC status after 24 hours of 5 μM MYCMI-7 treatment, middle panel and right panels, normal REFs and normal peripheral blood lymphocytes, respectively, after 24 and 48 hours of 5 μM MYCMI-7 treatment. […] Viability was measured by trypan blue exclusion assay. F) Cell growth measured with Cyt62 assay of primary normal human epidermal melanocytes (NHEM) treated for 72 hours with MYCMI-7, G) Viability measured by trypan blue exclusion assay of NHEM after treatment for 72 hours with MYCMI-7.
Flow cytometry: P493-6 cells were synchronized using 1 μg/ml doxycycline. […] Cells were stained with propidium iodide (Sigma) and 1×10^4 cells per treatment were analyzed using a FACScan and CellQuestPro (Becton Dickinson). […]

phosphorylation of ATM = test: phospho-ATM and p53 by western blot, A375; assay type: cell-based; conditions: 5 μM, A375 cells, 3 hrs
Procedure: A) Measurement of MYC mRNA expression by RTqPCR after treatment with MYCMI-7 and different topoisomerase inhibitors at indicated concentrations. […] D) Western blot analysis of p53 and p21 expression after exposure to 5 μM MYCMI-7, ellipticine or camptothecin (CPT) in HCT116 cells. E) Western blot analysis of phospho-ATM, total ATM and p53 expression after exposure to indicated concentrations of MYCMI-7 and ellipticine in A375 cells after 3 hrs treatment.
For western blot equal amounts of proteins ([…]) were separated on a 4-12% SDS-PAGE gel. Proteins were transferred to Immobilion-P membrane (Millipore) and detected by immunostaining and chemoluminescence (Immobilion western HRP substrate; Millipore). For immunoprecipitations 500-1000 μg of protein was used. […] Briefly, cells were crosslinked with 1% formaldehyde on ice for 6 minutes. Nuclear chromatin was sonicated on ice to fragments from 0.3 kb to 0.5 kb. Nuclear chromatin equivalent to 2.5×10^7 cells was immunoprecipitated with 2 μg antibody.

[2] = target: T1, recombinant bHLHZip domain of the MYC protein (Homo sapiens, UniProt P01106); test: surface plasmon resonance (SPR), MYC bHLHZip; assay type: binding
T1 construct: using the recombinant bHLHZip domain of the MYC protein; 6xHis (N); made in house; host or cells: E. coli BL21 (DE3)
T1 sequence (P01106 368-454 limits assumed): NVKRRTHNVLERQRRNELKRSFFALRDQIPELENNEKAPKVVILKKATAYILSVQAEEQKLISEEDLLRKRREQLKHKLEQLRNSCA
Procedure: FIG. 1: MYCMI-7 (Compound Example 1) inhibits the MYC:MAX interaction in cells, bind MYC in vitro, and blocks MYC function. A) Molecular structure of MYCMI-7. B-E) split Gaussia luciferase (GLuc) assay. MYC or MYCN and MAX Gluc constructs were co-transfected into HeLa cells together with a firefly luciferase vector. 24 hours post transfection cells were treated with compounds, and after another 17-24 hours cells were harvested and both GLuc and firefly luciferase activities were measured. The mean of three different experiments is shown. Treatment with: B) 5 μM of MYCMI-7, 64 μM 10058-F4 or 5 μM JQ1, respectively, C) 6.5 μM MYCMI-7 on cells expressing MYC:MAX GLuc vs. GCN4:GCN4 GLuc, D) 5 μM MYCMI-7 and 5 μM ellipticine. E) 5 μM MYCMI-7 for various time points. F) in situ proximity ligation assay (isPLA). […] MYC:GAL4 was used as negative control in the isPLA assay. G) Quantification of isPLA dots. (H) Co-immunoprecipitation (co-IP) of endogenous MYC and MAX proteins from MCF7 cells after treatment with 5 μM MYCMI-7 at various times. IP=immunoprecipitation; W=western blot. […] J) MYC target gene ODC1 expression after treatment with 5 μM MYCMI-7, quantified by qPCR. […] L) Recombinant MYC bHLHZip protein domain immobilized onto a CM5 chip was subjected to various concentrations of MYCMI-7 and the complex of MYCbHLHZip-MYCMI-7 was measured as response units by SPR. […]

CCN(CC)CC[n+]1ccc2c(C)c3[nH]c4ccccc4c3c(C)c2c1 [MYCMI-7, 2-(5,11-Dimethyl-6H-25-pyrido[4,3-b]carbazol-2-yl)-N,N-diethylethanamine bromide]
GSEA of differentially expressed genes: MYC and E2F target genes [1]: downregulation
G1/S ratio compared to DMSO (P493-6 cells): higher G1/S ratio
cell death (sub-G1 cells) (P493-6 cells): strongly induced cell death
phosphorylation of ATM and p53 expression (DDR signaling) (phosphorylation of ATM): only a slight increase
binding to recombinant MYC by SPR [2]: binds directly to MYC
Kd ([2]; SPR, Langmuir 1:1 analysis): ~4 µM

From patent US20250122193A1, “NOVEL PYRIDOCARBAZOLIUM COMPOUNDS AND MEDICAL USES THEREOF” (MyCural Therapeutics, priority 2021, published 2025)
